Data from patent US11878973B2, “Bicyclic compounds and their uses” (NOVARTIS AG, priority 2021, dated 2024).

Columns and labels:
WRN helicase = WRN helicase (Homo sapiens (Human), UniProt Q14191); experiment: In vitro enzymatic activity assay on WRN helicase (DNA dependent ATPase assay, ADP-Glo); assay type: biochemical; conditions: geometric means of at least 2 determinations; read-out: WRN ATPase Activity (IC50)
Excerpt: An ATPase assay was set up to measure the DNA dependent ATP hydrolysis activity of WRN helicase. This assay was used also to assess the inhibition properties of compounds of the invention on DNA dependent WRN ATPase activity.
The core helicase motif of the WRN protein (aa N517-P1238) was produced for this assay (protein production as described above). […] The ADP-Glo assay kit (Promega, Madison, WI) allowing the quantification of ADP produced in ATP hydrolysis reactions was used for setting up this assay.
Time course experiments were first performed in order to determine the best enzymatic assay conditions (including buffer conditions, reaction time and concentrations of protein, ATP and DNA substrates). A typical reaction consists of 10 nM WRN protein, 0.2 nM FLAP26, and 300 micromolar ATP in the following assay buffer: 30 mM Tris pH7.5, 2 mM MgCl2, 0.02% BSA, 50 mM NaCl, 0.1% pluronic F127 prepared in DNAse free water. To evaluate the inhibition properties of compounds of the invention, serial dilutions were prepared in DMSO (10 half log dilutions from a 10 mM DMSO solution). […] The reaction was started by addition of 2.5 microliters of FLAP26 at 0.4 nM and incubated for 30 minutes at room temperature. The reaction was stopped with the addition of 5 microliters of the first ADP-Glo reagent and incubated for one hour to remove the excess amount of ATP. Afterwards, 10 microliters of ATP detection reagent was added and incubated for an additional hour before reading. Luminescence output was recorded using Tecan 1000 reader, with 5 minutes delay before reading. Each concentration of compound was tested in duplicates in the assay plate.
Following normalization of activity values for the wells to % inhibition (% inhibition=[(high control-sample)/(high control-low control)]×100), IC50 fitting was carried out from the duplicate determinations present on each plate according to [4]. Data analysis can also be carried out using commercially available software designed to derive IC50 values using 4-parameter fits (e.g. GraphPad Prism, XL fit). The reported IC50 values are the geometrical means of at least 2 independent replicates.

SW48 cells = experiment: Proliferation assay SW48 (CellTiterGlo, 96 hours); conditions: Homo sapiens, SW48, read-out: Proliferation Assay SW48 (GI50)
DLD1-WRN-KO cells = experiment: Proliferation assay DLD1-WRN-KO (CellTiterGlo, 96 hours; off-target effects); conditions: Homo sapiens, read-out: Proliferation Assay DLD1-WRN-KO (GI50)
Protocol: The WRN-knockdown insensitive colon carcinoma cell line DLD-1 (RRID: CVCL_0248) was obtained from the Korean Cell Line Bank (KCLB), and used to generate a derivative in which the endogenous WRN gene copies were knocked out by CRISPR-mediated editing using standard CRISPR methods. The resulting cell line, DLD1-WRN—KO, was used to assess potential off-target compound effects.
All cells were maintained at 37° C. in a humidified 5% CO2 incubator.
For data analysis, the assay background signal that was determined in wells containing medium, but no cells, was subtracted from all other data points prior to further calculations. The extent of growth inhibition and potential cell kill was assessed by comparing the ATP levels (measured using CellTiterGlo, Promega) in compound-treated cells with those present at the time of compound addition. […] 100%, 0% and −100% signify absence of growth inhibition, growth stasis, and complete cell kill, respectively. Compound concentrations leading to half-maximal growth inhibition (G150) and residual cell viability at the highest tested compound concentration (Data (cmax), expressed in percent) were routinely calculated. Data analysis can also be carried out using commercially available software designed to derive IC50 values using 4-parameter fits (e.g. GraphPad Prism, XL fit). The reported GI50 values are the geometrical means of at least 2 independent replicates.

Sequence of WRN helicase (Q14191 517-1238): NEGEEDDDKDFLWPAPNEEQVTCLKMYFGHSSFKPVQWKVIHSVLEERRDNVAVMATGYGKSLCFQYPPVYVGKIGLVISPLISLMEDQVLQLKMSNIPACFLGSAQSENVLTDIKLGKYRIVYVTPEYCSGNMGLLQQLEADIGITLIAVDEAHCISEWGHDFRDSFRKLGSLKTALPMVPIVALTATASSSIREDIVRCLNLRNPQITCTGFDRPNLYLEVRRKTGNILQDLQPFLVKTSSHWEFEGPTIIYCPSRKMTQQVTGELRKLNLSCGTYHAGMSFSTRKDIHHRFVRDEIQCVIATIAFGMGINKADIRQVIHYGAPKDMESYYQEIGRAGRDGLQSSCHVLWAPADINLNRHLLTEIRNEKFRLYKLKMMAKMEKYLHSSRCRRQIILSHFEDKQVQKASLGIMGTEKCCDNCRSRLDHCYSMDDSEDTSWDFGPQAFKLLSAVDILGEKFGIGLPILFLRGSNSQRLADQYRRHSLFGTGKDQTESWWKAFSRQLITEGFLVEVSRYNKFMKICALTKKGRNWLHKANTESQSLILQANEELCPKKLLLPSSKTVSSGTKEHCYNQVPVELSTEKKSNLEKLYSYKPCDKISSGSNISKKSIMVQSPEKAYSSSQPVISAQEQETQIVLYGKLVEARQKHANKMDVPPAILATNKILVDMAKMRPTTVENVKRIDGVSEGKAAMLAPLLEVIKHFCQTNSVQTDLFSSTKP

| Structure (SMILES) | IC50 (WRN helicase) [µM] | GI50 (SW48 cells) [µM] | GI50 (DLD1-WRN-KO cells) [µM] |
| --- | --- | --- | --- |
| CCc1c(N2CCN(C(=O)c3ncccc3O)CC2)c(=O)n2nc(N3CCOCC3)nc2n1CC(=O)Nc1cc(Cl)c(C(F)(F)F)cc1C [Example 4, N-(5-chloro-2-methyl-4-(trifluoromethyl)phenyl)-2-(5-ethyl-6-(4-(3-hydroxypicolinoyl)piperazin-1-yl)-2-morpholino-7-oxo-[1,2,4]triazolo[1,5-a]pyrimidin-4(7H)-yl)acetamide] | 0.04 | 0.06 | > 10 |
| CCc1c(N2CCN(C(=O)c3ncccc3O)CC2)c(=O)n2nc(N3CCOCC3)nc2n1CC(=O)Nc1cc(F)c(C(F)(F)F)cc1C [Example 5, 2-(5-ethyl-6-(4-(3-hydroxypicolinoyl)piperazin-1-yl)-2-morpholino-7-oxo-[1,2,4]triazolo[1,5-a]pyrimidin-4(7H)-yl)-N-(5-fluoro-2-methyl-4-(trifluoromethyl)phenyl)acetamide] | 0.09 | 0.12 | > 10 |
| CCc1c(N2CCN(C(=O)c3nccc(Cl)c3O)CC2)c(=O)n2nc(N3CCOCC3)nc2n1CC(=O)Nc1cc(F)c(C(F)(F)F)cc1C [Example 6, 2-(6-(4-(4-chloro-3-hydroxypicolinoyl)piperazin-1-yl)-5-ethyl-2-morpholino-7-oxo-[1,2,4]triazolo[1,5-a]pyrimidin-4(7H)-yl)-N-(5-fluoro-2-methyl-4-(trifluoromethyl)phenyl)acetamide] | 0.07 | 0.27 | > 10 |
| CCc1c(N2CCN(C(=O)c3ncccc3O)CC2)c(=O)n2nc(N3CCOCC3)nc2n1CC(=O)Nc1cc(F)c(C(F)(F)F)cc1Cl [Example 7, N-(2-chloro-5-fluoro-4-(trifluoromethyl)phenyl)-2-(5-ethyl-6-(4-(3-hydroxypicolinoyl)piperazin-1-yl)-2-morpholino-7-oxo-[1,2,4]triazolo[1,5-a]pyrimidin-4(7H)-yl)acetamide] | 0.09 | 0.21 | > 10 |
| CCc1c(N2CCN(C(=O)c3ncccc3O)CC2)c(=O)n2nc(N3CCOCC3)nc2n1CC(=O)Nc1ccc(C(F)(F)F)cc1C [Example 8, 2-(5-ethyl-6-(4-(3-hydroxypicolinoyl)piperazin-1-yl)-2-morpholino-7-oxo-[1,2,4]triazolo[1,5-a]pyrimidin-4(7H)-yl)-N-(2-methyl-4-(trifluoromethyl)phenyl)acetamide] | 0.08 | 0.21 | > 10 |
| CCc1c(N2CCN(C(=O)c3ncccc3O)CC2)c(=O)n2nc(N3CCOCC3)nc2n1CC(=O)Nc1ccc(C(F)(F)F)nc1Cl [Example 10, N-(2-chloro-6-(trifluoromethyl)pyridin-3-yl)-2-(5-ethyl-6-(4-(3-hydroxypicolinoyl)piperazin-1-yl)-2-morpholino-7-oxo-[1,2,4]triazolo[1,5-a]pyrimidin-4(7H)-yl)acetamide] | 0.25 | 0.29 | 9.9 |
| CCc1c(N2CCN(C(=O)c3ncccc3O)CC2)c(=O)n2nc(N3CCOCC3)nc2n1CC(=O)Nc1ccc(C(F)(F)F)cc1F [Example 11, 2-(5-ethyl-6-(4-(3-hydroxypicolinoyl)piperazin-1-yl)-2-morpholino-7-oxo-[1,2,4]triazolo[1,5-a]pyrimidin-4(7H)-yl)-N-(2-fluoro-4-(trifluoromethyl)phenyl)acetamide] | 0.11 | 0.38 | > 10 |
| CCc1c(N2CCN(C(=O)c3ncccc3O)CC2)c(=O)n2nc(N3CCOCC3)nc2n1CC(=O)Nc1cc(C(F)(F)F)c(Cl)cc1C [Example 12, N-(4-chloro-2-methyl-5-(trifluoromethyl)phenyl)-2-(5-ethyl-6-(4-(3-hydroxypicolinoyl)piperazin-1-yl)-2-morpholino-7-oxo-[1,2,4]triazolo[1,5-a]pyrimidin-4(7H)-yl)acetamide] | 0.13 | 0.55 | > 10 |
| CCc1c(N2CCN(C(=O)c3ncccc3O)CC2)c(=O)n2nc(N3CCC[C@@H](F)C3)nc2n1CC(=O)Nc1ccc(C(F)(F)F)cc1C [Example 14a, (R)-2-(5-ethyl-2-(3-fluoropiperidin-1-yl)-6-(4-(3-hydroxypicolinoyl)piperazin-1-yl)-7-oxo-[1,2,4]triazolo[1,5-a]pyrimidin-4(7H)-yl)-N-(2-methyl-4-(trifluoromethyl)phenyl)acetamide] | 0.08 | 0.37 | > 10 |
| CCc1c(N2CCN(C(=O)c3ncccc3O)CC2)c(=O)n2nc(N3CCC[C@@H](F)C3)nc2n1CC(=O)Nc1ccc(C(F)(F)F)nc1Cl [Example 16a, (R)—N-(2-chloro-6-(trifluoromethyl)pyridin-3-yl)-2-(5-ethyl-2-(3-fluoropiperidin-1-yl)-6-(4-(3-hydroxypicolinoyl)piperazin-1-yl)-7-oxo-[1,2,4]triazolo[1,5-a]pyrimidin-4(7H)-yl)acetamide] | 0.19 | 0.34 | > 10 |
| CCc1c(N2CCN(C(=O)c3ncccc3O)CC2)c(=O)n2nc(N3CCCC3)nc2n1CC(=O)Nc1ccc(C(F)(F)F)cc1C [Example 17, 2-(5-ethyl-6-(4-(3-hydroxypicolinoyl)piperazin-1-yl)-7-oxo-2-(pyrrolidin-1-yl)-[1,2,4]triazolo[1,5-a]pyrimidin-4(7H)-yl)-N-(2-methyl-4-(trifluoromethyl)phenyl)acetamide] | 0.14 | 0.24 | > 10 |
| CCc1c(N2CCN(C(=O)c3ncccc3O)CC2)c(=O)n2nc(N3CCC(N(C)CC(F)F)CC3)nc2n1CC(=O)Nc1ccc(C(F)(F)F)nc1Cl [Example 20, N-(2-chloro-6-(trifluoromethyl)pyridin-3-yl)-2-(2-(4-((2,2-difluoroethyl)(methyl)amino)piperidin-1-yl)-5-ethyl-6-(4-(3-hydroxypicolinoyl)piperazin-1-yl)-7-oxo-[1,2,4]triazolo[1,5-a]pyrimidin-4(7H)-yl)acetamide] | 0.31 | 0.1 | > 10 |

Now from value to compound:

| IC50 (WRN helicase) [µM] | GI50 (SW48 cells) [µM] | GI50 (DLD1-WRN-KO cells) [µM] | Structure (SMILES) |
| --- | --- | --- | --- |
| 0.06 | 0.35 | > 10 | CCc1c(N2CCN(C(=O)c3nccc(Cl)c3O)CC2)c(=O)n2nc(N3CCOCC3)nc2n1CC(=O)Nc1ccc(C(F)(F)F)cc1C [Example 9, 2-(6-(4-(4-chloro-3-hydroxypicolinoyl)piperazin-1-yl)-5-ethyl-2-morpholino-7-oxo-[1,2,4]triazolo[1,5-a]pyrimidin-4(7H)-yl)-N-(2-methyl-4-(trifluoromethyl)phenyl)acetamide] |
| 0.09 | 0.26 | > 10 | CCc1c(N2CCN(C(=O)c3ncccc3O)CC2)c(=O)n2nc(N3CCC[C@H](F)C3)nc2n1CC(=O)Nc1ccc(C(F)(F)F)cc1C [Example 14b, (S)-2-(5-ethyl-2-(3-fluoropiperidin-1-yl)-6-(4-(3-hydroxypicolinoyl)piperazin-1-yl)-7-oxo-[1,2,4]triazolo[1,5-a]pyrimidin-4(7H)-yl)-N-(2-methyl-4-(trifluoromethyl)phenyl)acetamide] |
| 0.18 | 0.23 | > 10 | CCc1c(N2CCN(C(=O)c3ncccc3O)CC2)c(=O)n2nc(N3CCC[C@H](F)C3)nc2n1CC(=O)Nc1ccc(C(F)(F)F)nc1Cl [Example 16b, (S)—N-(2-chloro-6-(trifluoromethyl)pyridin-3-yl)-2-(5-ethyl-2-(3-fluoropiperidin-1-yl)-6-(4-(3-hydroxypicolinoyl)piperazin-1-yl)-7-oxo-[1,2,4]triazolo[1,5-a]pyrimidin-4(7H)-yl)acetamide] |
| 0.18 | 0.26 | > 10 | CCc1c(N2CCN(C(=O)c3ncccc3O)CC2)c(=O)n2nc(N3CCCC3)nc2n1CC(=O)Nc1ccc(C(F)(F)F)nc1Cl [Example 18, N-(2-chloro-6-(trifluoromethyl)pyridin-3-yl)-2-(5-ethyl-6-(4-(3-hydroxypicolinoyl)piperazin-1-yl)-7-oxo-2-(pyrrolidin-1-yl)-[1,2,4]triazolo[1,5-a]pyrimidin-4(7H)-yl)acetamide] |
| 0.09 | 0.11 | 5 | CCc1c(N2CCN(C(=O)c3ncccc3O)CC2)c(=O)n2nc(N3CCCC3)nc2n1CC(=O)Nc1cc(Cl)c(C(F)(F)F)cc1C [Example 19, N-(5-chloro-2-methyl-4-(trifluoromethyl)phenyl)-2-(5-ethyl-6-(4-(3-hydroxypicolinoyl)piperazin-1-yl)-7-oxo-2-(pyrrolidin-1-yl)-[1,2,4]triazolo[1,5-a]pyrimidin-4(7H)-yl)acetamide] |
